Legend:
mouse = details: equivalent of mouse LD10; ref EORTC-NDDO, 1992; cited from earlier work
solid tumours = assay: Antitumour activity (WHO response criteria); assay type: in vivo, human; details: 51 patients, eight not evaluable
From the text: Carzelesin (U-80,244, Figure 1A) is a cyclopropylpyrroloindole (CPI) prodrug analogue of CC-1065. […] CPI drugs are a class of compounds with unique DNA interactive properties. These agents fit into the minor groove region of DNA, and the CPI function in the molecule mediates a covalent binding to the N3 position of adenine in A-T rich regions, thus forming DNA adducts in a sequence selective fashion (Hurley et al, 1984; Reynolds et al, 1985). Three new CPIs have now been developed. […] Bizelesin differs from the classical CPI drugs in that it contains two chloromethyl functions, which are both converted (via intramolecular rearrangements) to the CPI alkyl- ating species that interact with DNA. Consequently, this agent is capable of forming DNA interstrand cross-links (Lee et al, 1991). […] Therefore, efforts were directed to modu- late the alkylation rate by the preparation of CPI prodrugs that would require chemical or enzymatic conversion. The activation of Carzelesin is a two-step reaction with hydrolysis of the phenyl- urethane substituent to form the intermediate compound U-76,073, followed by ring closure to form the active product U-76,074 (Figure 1B). […] The concentration of U-76,074 (active metabolite) extended above the lower limit of quantitation (1 ng ml-1) for short periods of time and only at the higher dose levels. […]

With CCN(CC)c1ccc2cc(C(=O)Nc3ccc4[nH]c(C(=O)N5C[C@@H](CCl)c6c5cc(OC(=O)Nc5ccccc5)c5[nH]cc(C)c65)cc4c3)oc2c1 [Carzelesin] as the compound, how does the MELD10 (mouse) read?
The MELD10 was 840 g m-2.

And the “patients with progressive disease as best overall response” value (solid tumours)?
Its value is “Thirty-four patients”.

And the “patients with stable disease as best overall response” value (solid tumours)?
The value was “nine patients”.

Source: publication PMC2362731, “Phase I study of Carzelesin (U-80,244) given (4-weekly) by intravenous bolus schedule” (British Journal of Cancer, 1999)
